In patent US9675070B2 (BAYER CROPSCIENCE AG, priority 2013, dated 2017):
Counter-ions that a name gives are not always drawn.

Legend:
[1] = log P determination by HPLC on reversed-phase column (C18), EEC Directive 79/831 Annex V.A8; format: physicochemical; conditions: method a): Agilent 1100 LC, Zorbax Eclipse Plus C18, acetonitrile/water with formic acid, gradient 10-95% in 4.25 min, 55° C.
Method: Agilent 1100 LC system; 50*4.6 Zorbax Eclipse Plus C18 1.8 micron; mobile phase A: acetonitrile (0.1% formic acid); mobile phase B: water (0.09% formic acid); linear gradient from 10% acetonitrile to 95% acetonitrile in 4.25 min, then 95% acetonitrile for a further 1.25 min; oven temperature 55° C.; flow rate: 2.0 ml/min. Mass detection is carried out via an Agilend MSD system.
^a)Unless indicated otherwise, the following method was used to determine the log P values and masses: The determination of the given log P values was carried out in accordance with EEC Directive 79/831 Annex V.A8 by HPLC (High Performance Liquid Chromatography) on a reversed-phase column (C18). Agilent 1100 LC system; 50*4.6 Zorbax Eclipse Plus C18 1.8 micron; mobile phase A: acetonitrile (0.1% formic acid); mobile phase B: water (0.09% formic acid); linear gradient from 10% acetonitrile to 95% acetonitrile in 4.25 min, then 95% acetonitrile for a further 1.25 min; oven temperature 55° C.; flow rate: 2.0 ml/min. Mass detection is carried out via an Agilend MSD system. ^b)Note for the alternative method for determining log P values and masses: The stated log P values were determined in accordance with EEC Directive 79/831 Annex V.A8 by HPLC (High Performance Liquid Chromatography) using a reversed-phase column (C18). Waters ACQUITY UPLC-MS system; 2.1*50 mm Zorbax Eclipse Plus C18 1.8 μm 600 bar; injection volume: 0.5 ul about 1000 ppm; mobile phase A: acetonitrile (0.1% formic acid); mobile phase B: water (0.085% formic acid); linear gradient from 10% acetonitrile to 95% acetonitrile in 1.5 min, then 95% acetonitrile for a further 0.5 min; oven temperature 60° C.; flow rate: 1.0 ml/min. Mass detection is carried out via a Waters SQD system.

[2] = system: L1 larvae of the Australian sheep blowfly (Lucilia cuprina); assay: Lucilia cuprina test (LUCICU); format: in vivo; conditions: application rate 100 ppm; minced horsemeat; after 2 days
Method: Lucilia cuprina Test (LUCICU) Solvent: dimethyl sulphoxide To produce a suitable preparation of active compound, 10 mg of active compound are mixed with 0.5 ml of dimethyl sulphoxide, and the concentrate is diluted with water to the desired concentration. About 20 L1 larvae of the Australian sheep blowfly (Lucilia cuprina) are transferred into a test vessel containing minced horsemeat and the active compound preparation of the desired concentration. After 2 days, the kill in % is determined. 100% means that all of the larvae have been killed; 0% means that none of the larvae have been killed.

[3] = system: engorged adult female cattle ticks (Boophilus microplus); assay: Boophilus microplus injection test (BOOPMI Inj); format: in vivo; conditions: application rate 20 μg/animal; injection into abdomen; assessed after 7 days
Method: Boophilus microplus Injection Test (BOOPMI Inj)
(§1) Solvent: dimethyl sulphoxide
To produce a suitable preparation of active compound, 10 mg of active compound are mixed with 0.5 ml of solvent, and the concentrate is diluted with solvent to the desired concentration.
1 μl of the active compound solution is injected into the abdomen of 5 engorged adult female cattle ticks (Boophilus microplus). The animals are transferred into dishes and kept in a climate-controlled room.
(§2) The activity is assessed after 7 days by laying of fertile eggs. Eggs whose fertility is not visible from the outside are stored in a climate-controlled cabinet until the larvae hatch after about 42 days. An efficacy of 100% means that none of the ticks has laid any fertile eggs; 0% means that all eggs are fertile.

[4] = system: adult cat fleas (Ctenocephalides felis); assay: Ctenocephalides felis oral test (CTECFE); format: in vivo; conditions: application rate 100 ppm in citrated cattle blood; after 2 days
Method: Ctenocephalides felis-Oral Test ([…]) Solvent: dimethyl sulphoxide To produce a suitable preparation of active compound, 10 mg of active compound are mixed with 0.5 ml of dimethyl sulphoxide. Dilution with citrated cattle blood gives the desired concentration. About 20 unfed adult cat fleas (Ctenocephalides felis) are placed into a chamber which is closed at the top and bottom with gauze. A metal cylinder whose bottom end is closed with a parafilm is placed onto the chamber. The cylinder contains the blood/active ingredient preparation, which can be imbibed by the fleas through the parafilm membrane. After 2 days, the kill in % is determined. 100% means that all of the fleas have been killed; 0% means that none of the fleas have been killed.

[5] = system: larvae of the mustard beetle (Phaedon cochleariae); assay: Phaedon cochleariae spray test (PHAECO); format: in vivo; conditions: application rate 100 g/ha; Chinese cabbage leaf discs; after 7 days
Method: Phaedon cochleariae—Spray Test (PHAECO)
(§3) Solvents: 78.0 parts by weight of acetone
(§4) • 1.5 parts by weight of dimethylformamide Emulsifier: alkylaryl polyglycol ether
(§5) To produce a suitable preparation of active compound, 1 part by weight of active compound is dissolved using the stated parts by weight of solvent and made up with water comprising an emulsifier concentration of 1000 ppm until the desired concentration is reached. To produce further test concentrations, the preparation is diluted with emulsifier-containing water.
After 7 days, the efficacy in % is determined. 100% means that all of the beetle larvae have been killed; 0% means that none of the beetle larvae have been killed.

[6] = system: adult houseflies (Musca domestica); assay: Musca domestica test (MUSCDO); format: in vivo; conditions: application rate 100 ppm; after 2 days
Method: Musca domestica Test (MUSCDO) Solvents: dimethyl sulphoxide To produce a suitable preparation of active compound, 10 mg of active compound are mixed with 0.5 ml of dimethyl sulphoxide, and the concentrate is diluted with water to the desired concentration. Vessels containing a sponge treated with sugar solution and the active compound preparation of the desired concentration are populated with 10 adult houseflies (Musca domestica). After 2 days, the kill in % is determined. 100% means that all of the flies have been killed; 0% means that none of the flies have been killed.

[7] = system: caterpillars of the armyworm (Spodoptera frugiperda); assay: Spodoptera frugiperda spray test (SPODFR); format: in vivo; conditions: application rate 100 g/ha; maize leaf discs; after 7 days
Method: Spodoptera frugiperda—Spray Test (SPODFR)
as §3, §4, §5
Leaf discs of maize (Zea mays) are sprayed with an active compound preparation of the desired concentration and, after drying, populated with caterpillars of the armyworm (Spodoptera frugiperda).
After 7 days, the efficacy in % is determined. 100% means that all of the caterpillars have been killed; 0% means that none of the caterpillars have been killed.

[8] = system: greenhouse red spider mite (Tetranychus urticae), OP-resistant; assay: Tetranychus urticae spray test, OP-resistant (TETRUR); format: in vivo; conditions: application rate 100 g/ha; bean leaf discs; after 6 days
Method: Tetranychus urticae—Spray Test, OP-Resistant (TETRUR)
as §3, §4, §5
Discs of bean leaves (Phaseolus vulgaris) which are infested by all stages of the greenhouse red spider mite (Tetranychus urticae) are sprayed with an active compound preparation of the desired concentration.
After 6 days, the efficacy in % is determined. 100% means that all of the spider mites have been killed; 0% means that none of the spider mites have been killed.

[9] = system: cattle ticks (Boophilus microplus) Parkhurst strain, SP-resistant; assay: Boophilus microplus dip test (BOOPMI Dip); format: in vivo; conditions: application rate 100 ppm, assessed after 7 days
Method: Boophilus microplus—Dip Test (BOOPMI Dip)
Test animals: cattle ticks (Boophilus microplus) Parkhurst strain, SP-resistant
as §1
10 mg of active compound are dissolved in 0.5 ml of dimethyl sulphoxide. To prepare a suitable formulation, the active compound solution is diluted with water to the concentration desired in each case.
This active compound preparation is pipetted into tubes. 8-10 adult engorged female cattle ticks (Boophilus microplus) are transferred into a further tube with holes. The tube is immersed into the active compound formulation, and all ticks are completely wetted. After the liquid has run out, the ticks are transferred on filter discs into plastic dishes and stored in a climate-controlled room.
as §2

Compound	chromatographic logP [1]	kill in % [2]	efficacy (no laying of fertile eggs) [3]	kill in % [4]	efficacy in % [5]	kill in % [6]	efficacy in % [7]	efficacy in % [8]	efficacy (no laying of fertile eggs) [9]
Cn1nc(C(F)(F)C(F)(F)F)c(C(F)(F)F)c1-n1cnc(-c2cccc(CN)c2)c1 [1-(3-{1-[1-methyl-3-(pentafluoroethyl)-4-(trifluoromethyl)-1H-pyrazol-5-yl]-1H-imidazol-4-yl}phenyl)methanamine hydrochloride]	1.83	–	–	–	–	–	–	–	–
Cn1nc(C(F)(F)C(F)(F)F)c(C(F)(F)F)c1-n1cc(-c2cccc(CN)c2)cn1 [1-{3-[2′-methyl-5′-(pentafluoroethyl)-4′-(trifluoromethyl)-2′H-1,3′-bipyrazol-4-yl]phenyl}methanamine hydrochloride (1:1)]	1.93	–	–	–	–	–	–	–	–
Cn1nc(C(F)(F)C(F)(F)F)c(C(F)(F)F)c1-n1cc(-c2ccc(F)c(C#N)c2)cn1 [2-fluoro-5-[2′-methyl-5′-(pentafluoroethyl)-4′-(trifluoromethyl)-2′H-1,3′-bipyrazol-4-yl]benzonitrile]	4.37	–	–	–	–	–	–	–	–
Cn1nc(C(F)(F)C(F)(F)F)c(C(F)(F)F)c1-n1cc(Br)cn1 [4-bromo-2′-methyl-5′-(pentafluoroethyl)-4′-(trifluoromethyl)-2′H-1,3′-bipyrazole]	4.17	–	–	–	–	–	–	–	–
Cn1nc(C(F)(F)C(F)(F)F)c(C(F)(F)F)c1-n1cnc(I)c1 [5-(4-iodo-1H-imidazol-1-yl)-1-methyl-3-(pentafluoroethyl)-4-(trifluoromethyl)-1H-pyrazole]	3.47	–	–	–	–	–	–	–	–
Cn1nc(C(F)(F)C(F)(F)F)c(C(F)(F)F)c1-n1cnc(-c2cccc(CNC(=O)OC(C)(C)C)c2)c1 [Ib-1, tert-butyl (3-{1-[1-methyl-3-(pentafluoroethyl)-4-(trifluoromethyl)-1H-pyrazol-5-yl]-1H-imidazol-4-yl}benzyl)carbamate]	4.21	–	–	–	–	–	–	–	–
CCC(=O)NCc1cccc(-c2cn(-c3c(C(F)(F)F)c(C(F)(F)C(F)(F)F)nn3C)cn2)c1 [Ib-5, N-(3-{1-[1-methyl-3-(pentafluoroethyl)-4-(trifluoromethyl)-1H-pyrazol-5-yl]-1H-imidazol-4-yl}benzyl)propanamide]	3.14	–	–	–	–	–	–	–	–
CCC(=O)NCc1cc(-c2cnn(-c3c(C(F)(F)F)c(C(F)(F)C(F)(F)F)nn3C)c2)ccc1F [Ib-8, N-{2-fluoro-5-[2′-methyl-5′-(pentafluoroethyl)-4′-(trifluoromethyl)-2′H-1,3′-bipyrazol-4-yl]benzyl}propanamide]	3.27	100%	100%	95%	100%	–	–	–	–
Cn1nc(C(F)(F)C(F)(F)F)c(C(F)(F)F)c1-n1cc(-c2ccc(F)c(CNC(=O)CC(F)(F)F)c2)cn1 [Ic-5]	–	100%	100%	100%	100%	100%	100%	100%	–
Cn1nc(C(F)(F)C(F)(F)F)c(C(F)(F)F)c1-n1cc(-c2ccc(F)c(CNC(=O)C(F)(F)F)c2)cn1 [Ic-6]	–	100%	100%	100%	100%	80%	–	100%	–
CCC(=O)NCc1cc(-c2cnn(-c3c(C(F)(F)F)c(C(F)(F)C(F)(F)F)nn3C)n2)ccc1F [If-1]	–	100%	100%	100%	100%	80%	100%	–	–
CC(=O)NCc1cc(-c2cn(-c3c(C(F)(F)F)c(C(F)(F)C(F)(F)F)nn3C)nn2)ccc1F [Ig-1]	–	100%	100%	100%	100%	100%	–	100%	80%
Cn1nc(C(F)(F)C(F)(F)F)c(C(F)(F)F)c1-n1cc(-c2cccc(CNC(=O)C3CC3)c2)nn1 [Ig-2]	–	100%	100%	100%	100%	100%	–	–	–
CCC(=O)NCc1cccc(-c2cn(-c3c(C(F)(F)F)c(C(F)(F)C(F)(F)F)nn3C)nn2)c1 [Ig-4]	–	100%	100%	100%	100%	100%	–	90%	–
CCC(=O)NCc1cc(-c2cn(-c3c(C(F)(F)F)c(C(F)(F)C(F)(F)F)nn3C)nn2)ccc1F [Ig-5]	–	100%	100%	100%	100%	100%	100%	–	100%
